# In patent publication US20240132484A1, “BROAD SPECTRUM ANTIVIRAL COMPOUNDS TARGETING THE SKI COMPLEX” (priority 2020, published 2024):
# “And” between values parts separate entries of the source, which are not always exact repeats. Identical values can stand only once. Like-named read-outs stand apart in the source and are kept apart here.
# Legend:
# SARS2 = format: cell-based, SARS-CoV-2; details: for Percentage Infection Relative to Appropriate DMSO Control: Exp 3 (SMW480), avg background subtraction
# cells (nuclei count) = details: for Toxicity Data: Average, Mean: average of Exp 1-3 (SMW475, SMW477, SMW478), n 9; for Toxicity Data, Percentage Relative to Appropriate DMSO Control, Mean: Average of Exp 1 and Exp 2, n=4; for Toxicity Data, Percentage Relative to Appropriate DMSO Control: single wells
# WDR61 = WDR61 (Homo sapiens, UniProt Q9GZS3); experiment: Surface Plasmon Resonance with pure WDR61 protein
structure (smiles),measurement,setting,value
COc1ccc(CNCCc2ccccc2F)c(OCC(O)CN2CCN(C)CC2)c1 (racemic) [UMB18G],Percentage Infection Relative to Appropriate DMSO Control,SARS2; 1 uM,54.21% and 61.59% and 57.93%
same,Percentage Infection Relative to Appropriate DMSO Control,SARS2; 5 uM,19.54% and 24.35% and 30.13%
same,Percentage Infection Relative to Appropriate DMSO Control,SARS2; 10 uM,53.71% and 59.47% and 34.88%
same,Percentage Infection Relative to Appropriate DMSO Control,SARS2; 25 uM,−0.67% and 2.60% and 2.37%
same,Percentage Infection Relative to Appropriate DMSO Control,SARS2; 50 uM,−1.69% and −2.08% and −2.66%
same,Percentage Inhibition Average 1 μM,"SARS2; SARS2, 1 μM",40.42%
same,Screening data (Relative infection to DMSO controls) Average 1 μM,"SARS2; SARS2, 1 μM, 100=DMSO control",59.58
same,Percentage Inhibition Average 5 μM,"SARS2; SARS2, 5 μM",68.79%
same,Screening data (Relative infection to DMSO controls) Average 5 μM,"SARS2; SARS2, 5 μM, 100=DMSO control",31.21
same,Percentage Inhibition Average 10 μM,"SARS2; SARS2, 10 μM",90.05%
same,Screening data (Relative infection to DMSO controls) Average 10 μM,"SARS2; SARS2, 10 μM, 100=DMSO control",9.95
same,Percentage Inhibition Average 25 μM,"SARS2; SARS2, 25 μM",93.14%
same,Screening data (Relative infection to DMSO controls) Average 25 μM,"SARS2; SARS2, 25 μM, 100=DMSO control",6.86
same,Percentage Inhibition Average 50 μM,"SARS2; SARS2, 50 μM",94.65%
same,Screening data (Relative infection to DMSO controls) Average 50 μM,"SARS2; SARS2, 50 μM, 100=DMSO control",5.35
same,Average (relative infection to DMSO over the 5 tested concentrations),"SARS2; SARS2, average over 1 to 50 uM, 100=DMSO control",22.59
same,"Toxicity Data: Average, Mean",cells (nuclei count); 1 uM,125.37%
same,"Relative cell count to DMSO controls, Average 1 μM","cells (nuclei count); 1 μM, toxicity data, 100=DMSO control",123.37
same,"Toxicity Data: Average, Mean",cells (nuclei count); 5 uM,151.57%
same,"Relative cell count to DMSO controls, Average 5 μM","cells (nuclei count); 5 μM, toxicity data, 100=DMSO control",134.20
same,"Toxicity Data: Average, Mean",cells (nuclei count); 10 uM,148.72%
same,"Relative cell count to DMSO controls, Average 10 μM","cells (nuclei count); 10 μM, toxicity data, 100=DMSO control",139.68
same,"Toxicity Data: Average, Mean",cells (nuclei count); 25 uM,110.49%
same,"Relative cell count to DMSO controls, Average 25 μM","cells (nuclei count); 25 μM, toxicity data, 100=DMSO control",116.94
same,"Toxicity Data: Average, Mean",cells (nuclei count); 50 uM,58.67%
same,"Relative cell count to DMSO controls, Average 50 μM","cells (nuclei count); 50 μM, toxicity data, 100=DMSO control",85.72
same,"Toxicity Data, Average, Mean","cells (nuclei count); Average of Exp 1-3, n 9, 1 uM",108.03%
same,"Toxicity Data, Average, Mean","cells (nuclei count); Average of Exp 1-3, n 9, 5 uM",120.64%
same,"Toxicity Data, Average, Mean","cells (nuclei count); Average of Exp 1-3, n 9, 10 uM",114.41%
same,"Toxicity Data, Average, Mean","cells (nuclei count); Average of Exp 1-3, n 9, 25 uM",112.46%
same,"Toxicity Data, Average, Mean","cells (nuclei count); Average of Exp 1-3, n 9, 50 uM",78.15%
same,"Toxicity Data, Percentage Relative to Appropriate DMSO Control, Mean",cells (nuclei count); 1 uM,121.38% and 131.60%
same,"Toxicity Data, Percentage Relative to Appropriate DMSO Control, Mean",cells (nuclei count); 5 uM,129.65% and 137.65%
same,"Toxicity Data, Percentage Relative to Appropriate DMSO Control, Mean",cells (nuclei count); 10 uM,137.10% and 131.04%
same,"Toxicity Data, Percentage Relative to Appropriate DMSO Control, Mean",cells (nuclei count); 25 uM,118.22% and 120.31%
same,"Toxicity Data, Percentage Relative to Appropriate DMSO Control, Mean",cells (nuclei count); 50 uM,93.28% and 100.37%
same,"Toxicity Data, nuclei count relative to DMSO controls","cells (nuclei count); Exp 1 (SMW454), 1 uM",94.8% and 106.7% and 107.9%
same,"Toxicity Data, nuclei count relative to DMSO controls","cells (nuclei count); Exp 1 (SMW454), 5 uM",92.6% and 104.0% and 109.1%
same,"Toxicity Data, nuclei count relative to DMSO controls","cells (nuclei count); Exp 1 (SMW454), 10 uM",94.4% and 107.2% and 106.3%
same,"Toxicity Data, nuclei count relative to DMSO controls","cells (nuclei count); Exp 1 (SMW454), 25 uM",98.3% and 107.4% and 105.6%
same,"Toxicity Data, nuclei count relative to DMSO controls","cells (nuclei count); Exp 1 (SMW454), 50 uM",95.5% and 101.6% and 97.7%
same,"Toxicity Data, Percentage Relative to Appropriate DMSO Control","cells (nuclei count); Exp 1 (SMW506), 10 uM",114% and 126% and 122%
same,"Toxicity Data, Percentage Relative to Appropriate DMSO Control","cells (nuclei count); Exp 1 (SMW506), 25 uM",111% and 119% and 121%
same,"Toxicity Data, nuclei count relative to DMSO controls","cells (nuclei count); Exp 2 (SMW466), 1 uM",77.1% and 105.3% and 105.6%
same,"Toxicity Data, nuclei count relative to DMSO controls","cells (nuclei count); Exp 2 (SMW466), 5 uM",80.8% and 132.0% and 142.0%
same,"Toxicity Data, nuclei count relative to DMSO controls","cells (nuclei count); Exp 2 (SMW466), 10 uM",78.2% and 135.1% and 144.2%
same,"Toxicity Data, nuclei count relative to DMSO controls","cells (nuclei count); Exp 2 (SMW466), 25 uM",68.6% and 126.9% and 132.7%
same,"Toxicity Data, Percentage Relative to Appropriate DMSO Control","cells (nuclei count); Exp 2 (SMW507), 5 uM",144% and 156% and 158%
same,"Toxicity Data, Percentage Relative to Appropriate DMSO Control","cells (nuclei count); Exp 2 (SMW507), 10 uM",148% and 160% and 140%
same,"Toxicity Data, nuclei count relative to DMSO controls","cells (nuclei count); Exp 3 (SMW480), 1 uM",110.1% and 127.5% and 137.1%
same,"Toxicity Data, nuclei count relative to DMSO controls","cells (nuclei count); Exp 3 (SMW480), 5 uM",113.4% and 154.3% and 157.5%
same,"Toxicity Data, nuclei count relative to DMSO controls","cells (nuclei count); Exp 3 (SMW480), 10 uM",89.6% and 123.8% and 150.9%
same,"Toxicity Data, nuclei count relative to DMSO controls","cells (nuclei count); Exp 3 (SMW480), 50 uM",60.8% and 69.5% and 85.1%
same,"Relative cell count to DMSO controls, Average (for correlation analysis)",cells (nuclei count); average value over the 5 tested concentrations (1 to 50 uM),119.98
same,direct binding to WDR61 by SPR,WDR61,binding directly to WDR61
